Patent US20230033360A1, “COMPOUNDS AS CD73 INHIBITORS” (BioArdis LLC, priority 2019, published 2023)

These compounds were tested against T1, Recombinant Human 5′-Nucleotidase (CD73) (Homo sapiens, UniProt P21589) (assay: CD73 Enzyme Assay (PiColorLock inorganic phosphate detection, AMP substrate)). Details: human CD73 0.5 nM, AMP 30 μM, 20 min at 37° C., absorbance 635 nm; read-out: Potency (IC50).
T1 construct: CHO derived CD73 (Trp27-Lys547), with a C-terminal 6-His tag; 6-His (C); purchased R&D 5795-EN; host or cells: CHO
T1 sequence (P21589 27-547): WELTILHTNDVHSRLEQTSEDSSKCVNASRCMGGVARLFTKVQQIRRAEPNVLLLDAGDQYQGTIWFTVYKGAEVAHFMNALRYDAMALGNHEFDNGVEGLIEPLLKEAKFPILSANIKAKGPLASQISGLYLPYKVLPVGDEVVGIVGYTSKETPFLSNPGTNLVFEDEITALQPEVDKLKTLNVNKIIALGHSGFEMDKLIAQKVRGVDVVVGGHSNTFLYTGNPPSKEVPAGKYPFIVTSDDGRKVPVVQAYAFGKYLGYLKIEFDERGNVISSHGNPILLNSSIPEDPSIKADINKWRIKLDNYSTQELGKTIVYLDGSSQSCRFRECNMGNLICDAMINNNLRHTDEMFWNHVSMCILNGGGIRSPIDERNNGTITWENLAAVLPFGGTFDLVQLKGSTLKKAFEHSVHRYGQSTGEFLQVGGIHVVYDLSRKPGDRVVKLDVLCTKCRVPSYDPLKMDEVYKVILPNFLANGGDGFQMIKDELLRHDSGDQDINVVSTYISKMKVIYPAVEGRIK
Assay type: biochemical
Description: Soluble recombinant CD73 catalyzes the conversion of adenosine monophosphate (AMP) to adenosine and inorganic phosphate. The phosphate detection reagent, PiColorLock™ (Innova Bioscience, Cat #303-0125) is based on the change in absorbance of the dye malachite green in the presence of inorganic phosphate (Pi) and this property can be exploited to measure any enzyme that generates Pi. Recombinant Human 5′-Nucleotidase (CD73) (R&D #5795-EN, CHO derived CD73 (Trp27-Lys547), with a C-terminal 6-His tag) was used in the enzymatic assay. This assay, run in a 384-well plate format (Corning® NBS™ 384 well plates, Cat #3640), is a generic method for measuring inorganic phosphate. The basic assay procedure involves two steps: 1) Enzyme reaction: The CD73 enzyme (R&D #5795-EN) is incubated in the presence or absence of compounds. AMP (sigma, cat #01930) is added to start the […] reaction. 2) Detection step: Gold mix is added to the assay system, then stabilizers are added. After incubation the absorbance of the solution is read at OD 635 nm. The recorded OD signal is proportional to the enzyme activity.
Briefly, 25 μl human CD73 (0.5 nM final concentration) in the enzymatic buffer solutions (20 mM Tris, 25 mM NaCl, 1 mM MgCl2, pH 7.5, 0.005% Tween-20) were mixed with various concentrations of the test compound (dissolved in 100% DMSO). These solutions were incubated for 15 min at 25° C., and subsequently 25 μl AMP (30 μM final concentration) was added to start the reaction. The final reaction mixture of enzyme-substrate-compound was incubated for 20 min at 37° C. Meanwhile ‘Gold mix’ was prepared shortly before use by adding 1/100 vol. of accelerator to the PiColorLock™ Gold reagent. 12 μL/well of the ‘Gold mix’ was added to assay plate containing 50 μL enzyme reaction buffer and incubated at 25° C. for 5 min. 5 μL/well stabilizer was added to the assay plate and incubated at 25° C. for 30 min. The absorbance of the well solutions was measured at 635 nm on a Spark 10M instrument (TECAN).
The percent (%) inhibition at each concentration of a compound was calculated relative to the […] value in the Max and Min control wells contained within each assay plate. The Max control wells contained enzyme and substrate as 0% inhibition, and the Min control wells only contained substrate without enzyme as 100% inhibition. The concentrations and percent inhibition values for a test compound are plotted and the concentration of the compound required to achieve 50% inhibition (IC50) was determined with a four-parameter logistic dose response equation.

IC50 [nM]	Structure (SMILES)
1 to 9.9	O=P(O)(O)CP(=O)(O)OC[C@H]1OC(c2cnc3c(NCc4ccccc4)cc(Cl)nn23)[C@H](O)[C@@H]1O (stereo partly drawn) [Example S14, (((((2R,3S,4R)-5-(8-(benzylamino)-6-chloroimidazo[1,2-b]pyridazin-3-yl)-3,4-dihydroxytetrahydrofuran-2-yl)methoxy)(hydroxy)phosphoryl)methyl)phosphonic acid]
1 to 9.9	O=P(O)(O)CP(=O)(O)OC[C@H]1OC(c2cnc3c(NCc4ccccc4Cl)cc(Cl)nn23)[C@H](O)[C@@H]1O (stereo partly drawn) [Example S15, (((((2R,3S,4R)-5-(6-chloro-8-((2-chlorobenzyl)amino)imidazo[1,2-b]pyridazin-3-yl)-3,4-dihydroxytetrahydrofuran-2-yl)methoxy)(hydroxy)phosphoryl)methyl)phosphonic acid]
1 to 9.9	C[C@H](Nc1cc(Cl)nn2c(C3O[C@H](COP(=O)(O)CP(=O)(O)O)[C@@H](O)[C@H]3O)cnc12)c1cccc(F)c1 (stereo partly drawn) [Example S16, (((((2R,3S,4R)-5-(6-chloro-8-(((S)-1-(3-fluorophenyl)ethyl)amino)imidazo[1,2-b]pyridazin-3-yl)-3,4-dihydroxytetrahydrofuran-2-yl)methoxy)(hydroxy)phosphoryl)methyl)phosphonic acid]
1 to 9.9	C[C@H](Nc1cc(Cl)nn2c(C3O[C@H](COP(=O)(O)CP(=O)(O)O)[C@@H](O)[C@H]3O)cnc12)c1ccccc1 (stereo partly drawn) [Example S18, (((((2R,3S,4R)-5-(6-chloro-8-(((S)-1-phenylethyl)amino)imidazo[1,2-b]pyridazin-3-yl)-3,4-dihydroxytetrahydrofuran-2-yl)methoxy)(hydroxy)phosphoryl)methyl)phosphonic acid]
1 to 9.9	O=P(O)(O)CP(=O)(O)OC[C@H]1OC(c2cnc3c(N4CCc5ccccc54)cc(Cl)nn23)[C@H](O)[C@@H]1O (stereo partly drawn) [Example S25, (((((2R,3S,4R)-5-(6-chloro-8-(indolin-1-yl)imidazo[1,2-b]pyridazin-3-yl)-3,4-dihydroxytetrahydrofuran-2-yl)methoxy)(hydroxy)phosphoryl)methyl)phosphonic acid]

Continued, compound first:

Structure (SMILES)	IC50 [nM]
O=P(O)(O)CP(=O)(O)OC[C@H]1O[C@@H](c2csc3c(NC4CCCC4)nc(Cl)nc23)[C@H](O)[C@@H]1O [Example S10, (((((2R,3S,4R,5S)-5-(2-chloro-4-(cyclopentylamino)thieno[3,2-d]pyrimidin-7-yl)-3,4-dihydroxytetrahydrofuran-2-yl)methoxy)(hydroxy)phosphoryl)methyl)phosphonic acid]	< 1
O=P(O)(O)CP(=O)(O)OC[C@H]1O[C@H](c2csc3c(NC4CCCC4)nc(Cl)nc23)[C@H](O)[C@@H]1O [Example S11]	10 to 99
O=P(O)(O)CP(=O)(O)OC[C@H]1OC(c2cnc3c(NC4CCOC4)cc(Cl)nn23)[C@H](O)[C@@H]1O (stereo partly drawn) [Example S12, (((((2R,3S,4R)-5-(6-chloro-8-((tetrahydrofuran-3-yl)amino)imidazo[1,2-b]pyridazin-3-yl)-3,4-dihydroxytetrahydrofuran-2-yl)methoxy)(hydroxy)phosphoryl)methyl)phosphonic acid]	1 to 9.9
O=P(O)(O)CP(=O)(O)OC[C@H]1OC(c2cnc3c(NC4CCC(F)(F)C4)cc(Cl)nn23)[C@H](O)[C@@H]1O (stereo partly drawn) [Example S13, (((((2R,3S,4R)-5-(6-chloro-8-((3,3-difluorocyclopentyl)amino)imidazo[1,2-b]pyridazin-3-yl)-3,4-dihydroxytetrahydrofuran-2-yl)methoxy)(hydroxy)phosphoryl)methyl)phosphonic acid]	1 to 9.9
C[C@H](Nc1cc(Cl)nn2c(C3O[C@H](COP(=O)(O)CP(=O)(O)O)[C@@H](O)[C@H]3O)cnc12)c1ccc(F)cc1 (stereo partly drawn) [Example S17, (((((2R,3S,4R)-5-(6-chloro-8-(((S)-1-(4-fluorophenyl)ethyl)amino)imidazo[1,2-b]pyridazin-3-yl)-3,4-dihydroxytetrahydrofuran-2-yl)methoxy)(hydroxy)phosphoryl)methyl)phosphonic acid]	< 1
C[C@H](Nc1cc(Cl)nn2c(C3O[C@H](COP(=O)(O)CP(=O)(O)O)[C@@H](O)[C@@H]3F)cnc12)c1ccccc1F (stereo partly drawn) [Example S19, (((((2R,3R,4S)-5-(6-chloro-8-(((S)-1-(2-fluorophenyl)ethyl)amino)imidazo[1,2-b]pyridazin-3-yl)-4-fluoro-3-hydroxytetrahydrofuran-2-yl)methoxy)(hydroxy)phosphoryl)methyl)phosphonic acid]	10 to 99
O=P(O)(O)CP(=O)(O)OC[C@H]1OC(c2cnc3c(N4CCCC4)cc(Cl)nn23)[C@H](O)[C@@H]1O (stereo partly drawn) [Example S20, (((((2R,3S,4R)-5-(6-chloro-8-(pyrrolidin-1-yl)imidazo[1,2-b]pyridazin-3-yl)-3,4-dihydroxytetrahydrofuran-2-yl)methoxy)(hydroxy)phosphoryl)methyl)phosphonic acid]	1 to 9.9
O=P(O)(O)CP(=O)(O)OC[C@H]1OC(c2cnc3c(N4CCCC4)cc(Cl)nn23)[C@@H](F)[C@@H]1O (stereo partly drawn) [Example S21, (((((2R,3R,4S)-5-(6-chloro-8-(pyrrolidin-1-yl)imidazo[1,2-b]pyridazin-3-yl)-4-fluoro-3-hydroxytetrahydrofuran-2-yl)methoxy)(hydroxy)phosphoryl)methyl)phosphonic acid]	10 to 99
O=P(O)(O)CP(=O)(O)OC[C@H]1OC(c2cnc3c(N4CCC(F)(F)C4)cc(Cl)nn23)[C@@H](F)[C@@H]1O (stereo partly drawn) [Example S22, (((((2R,3R,4S)-5-(6-chloro-8-(3,3-difluoropyrrolidin-1-yl)imidazo[1,2-b]pyridazin-3-yl)-4-fluoro-3-hydroxytetrahydrofuran-2-yl)methoxy)(hydroxy)phosphoryl)methyl)phosphonic acid]	10 to 99
O=P(O)(O)CP(=O)(O)OC[C@H]1OC(c2cnc3c(N4CC5CC5C4)cc(Cl)nn23)[C@H](O)[C@@H]1O (stereo partly drawn) [Example S23, (((((2R,3S,4R)-5-(8-(3-azabicyclo[3.1.0]hexan-3-yl)-6-chloroimidazo[1,2-b]pyridazin-3-yl)-3,4-dihydroxytetrahydrofuran-2-yl)methoxy)(hydroxy)phosphoryl)methyl)phosphonic acid]	< 1
O=P(O)(O)CP(=O)(O)OC[C@H]1OC(c2cnc3c(N4CC5CCCC5C4)cc(Cl)nn23)[C@@H](F)[C@@H]1O (stereo partly drawn) [Example S24, (((((2R,3R,4S)-5-(6-chloro-8-(hexahydrocyclopenta[c]pyrrol-2 (1H)-yl)imidazo[1,2-b]pyridazin-3-yl)-4-fluoro-3-hydroxytetrahydrofuran-2-yl)methoxy)(hydroxy)phosphoryl)methyl)phosphonic acid]	1 to 9.9
O=P(O)(O)CP(=O)(O)OC[C@H]1OC(c2cnc3c(N4CCCCC4)cc(Cl)nn23)[C@H](O)[C@@H]1O (stereo partly drawn) [Example S26, (((((2R,3S,4R)-5-(6-chloro-8-(piperidin-1-yl)imidazo[1,2-b]pyridazin-3-yl)-3,4-dihydroxytetrahydrofuran-2-yl)methoxy)(hydroxy)phosphoryl)methyl)phosphonic acid]	1 to 9.9
O=P(O)(O)CP(=O)(O)OC[C@H]1OC(c2cnc3c(N4CCCC[C@H]4c4ccccc4)cc(Cl)nn23)[C@H](O)[C@@H]1O (stereo partly drawn) [Example S27, (((((2R,3S,4R)-5-(6-chloro-8-((S)-2-phenylpiperidin-1-yl)imidazo[1,2-b]pyridazin-3-yl)-3,4-dihydroxytetrahydrofuran-2-yl)methoxy)(hydroxy)phosphoryl)methyl)phosphonic acid]	1 to 9.9
